Test results published in US12576059B2, “Methods and compositions for treatment of inflammatory disease” (priority 2021, dated 2026).

Experiments:
[1] = design: species or system mice; details: in vivo
Procedure: Male and Female BALB/c and C57BL/6 mice were provided with standard environmental conditions i.e., 22±1° C., 55±5% humidity and 12 h light/dark cycle with free food and water access. At the age of six weeks, animals were split into 8 groups (n=160 total, 20 of each gender) and were continuously fed ad libitum on the diet containing either H-AA or D-AA for 2, 4, 6 or 8 weeks at the daily rate of ca. 5 g of diet per mouse for the duration of the study. The other two groups of animals (n=40, 20 of each gender) received neither PUFA-enriched diets nor LPS served as controls. The body weight and food intake were measured once a week. […]
The relative ratio of H-AA to D-AA was determined by gas chromatography (GC) coupled to chemical ionization mass spectrometry. […]
As the first step to test this hypothesis, we studied the metabolic effect of such a dietary supplementation. We determined the actual content of D-AA and then performed a washout experiment after a long period of supplementation by switching from D-AA to H-AA diet by MS analysis of several mouse tissues in the AA-diet fed mice. […]

[2] = test system: LPS induced acute lung inflammation; assay: Example 2: LPS induced inflammation, H-AA versus D-AA, male and female mice; type: in vivo; details: for Interalveolar space / Interalveolar surface area: 6-week course, then single intranasal LPS; for inflammation in the lungs (in words): male and female mice, after LPS
Procedure: LPS administration was conducted as per Example 1 above except that four groups of mice were used. The first two groups (1 and 2) were control mice (male and female). The next two groups (3 and 4) of mice received a 6-week course of H-AA (male and female). Finally, the last two groups (5 and 6) of mice received a 6-week course of D6-AA (second group). Groups 3, 4, 5 and 6 then received a single intranasal administration of LPS to induce acute lung inflammation. The degree of the inflammatory response was determined per Example 1. Next, the height and distance of the interalveolar septa was determined to provide for the surface area of the inflammation.

[3] = test system: LPS induced acute lung inflammation; assay: Example 1a: mouse model of lung inflammation (FIGS. 3-6, Table 4); type: in vivo, mice; details: for Alveolar lumen area (25%; 75%) / Partition thickness Me (25%; 75%): + LPS, median; for protective / therapeutic effect compared to other deuterated PUFAs: preliminary data (not shown)
Procedure: FIGS. 3-6 Groups of female (f) and male (m) mice received a 6-week course of dietary (H) AA or a 6-week course of deuterated arachidonic acid (D6-ARA, 15 mg/day) followed by single intranasal administration of LPS.
LPS treatment promotes inflammation through various mechanisms including secretion of pro-inflammatory cytokines, eicosanoids and induction of ROS. Following induction by the intranasal administration of LPS, an acute lung inflammation quickly follows. […] Such a pronounced inflammatory infiltration of the interalveolar septa contributed to their destruction and more frequent formation of emphysema foci in this group. […] (See FIGS. 3-6.)
The degree of alveolar lumen area changes in both groups of animals depended on gender. […]

[4] = test system: LPS induced acute lung inflammation; assay: Example 1: LPS induced acute lung inflammation, interalveolar septa distance; type: in vivo, mice
Text: LPS administration is known to promote inflammation through various mechanisms including secretion of pro-inflammatory cytokines, eicosanoids and induction of ROS. This example employed LPS to ascertain the extent of inflammation arising from ROS induced oxidation of H-AA versus D-AA in the lungs of mice. Specifically, four groups of mice were used. The first group was control mice treated with H-LA control mice. The second group of mice received a 6-week course of D-LA. It is understood that in vivo conversion of a portion of both H-LA and D-LA occurs to provide for AA and 13,13-D2-AA respectively. The third group of mice received a 6-week course of H-AA. The fourth group of mice received a 6-week course of D-AA. All groups then received a single intranasal administration of LPS to induce acute lung inflammation. The degree of the inflammatory response was based on the interalveolar septa distance where the larger the distance of the septa, the greater the degree of inflammation. The animals were sacrificed and the interalveolar septa distance was measured. Table 1 provides an average degree of spatial distance for the interalveolar septa for the results of all groups.

[2H]C([2H])(/C=C\CCCCC)/C=C\C([2H])([2H])/C=C\C([2H])([2H])/C=C\CCCC(=O)O [D-AA, 7,7,10,10,13,13-D6-arachidonic acid]
incorporation of the deuterated form ([1]; both, BALB/c and C57BL/6, mouse, 12 weeks): more than 60%
washout with H-AA feeding ([1]; mouse): more rapid than brain
Interalveolar space ([2]; female mice): ~3.5 μm
Interalveolar surface area ([2]; female mice): ~90 μm^2
inflammation in the lungs (in words) [2]: statistically significant reduction in inflammation
inflammation in the lungs (in words) ([2]; listed as D-6 AA): less inflammation in the lungs
Interalveolar space ([2]; male mice): ~5.0 μm
Interalveolar surface area ([2]; male mice): ~190 μm^2
alveolar lumen area and thickness versus controls ([3]; 6-week course, 15 mg/day, then single intranasal LPS): consistent with controls
Alveolar lumen area (25%; 75%) ([3]; females): 57.4 μm^2
Partition thickness Me (25%; 75%) ([3]; females): 3.6 µm
Alveolar lumen area (25%; 75%) ([3]; males): 112.1 μm^2
Partition thickness Me (25%; 75%) ([3]; males): 5.55 µm
protective / therapeutic effect compared to other deuterated PUFAs [3]: best protective effect
protective / therapeutic effect compared to other deuterated PUFAs ([3]; listed as D6-AA): better therapeutic effect
Interalveolar space (average spatial distance for the interalveolar septa) ([4]; 6-week course, then single intranasal LPS): 4.1 μm
reduction in the spatial distance for the interalveolar septa ([4]; D-LA relative to H-LA, comparator for D-AA not stated): ~60%
